According to patent publication US12194051B2, “5-azaindazole derivatives as adenosine receptor antagonists” (MERCK PATENT GMBH, priority 2018, dated 2025):

How the values were obtained:
human A2A receptors = molecular target: T1, human A2A receptors (Homo sapiens, UniProt P29274); test: Inhibition of human A2A receptor in recombinant HEK293 cells, cAMP quantification (HTRF); type: cell-based; conditions: read-out: A2A (Category)
T1 construct: expressed in transfected cells; host or cells: HEK293
T1 sequence (P29274 whole entry): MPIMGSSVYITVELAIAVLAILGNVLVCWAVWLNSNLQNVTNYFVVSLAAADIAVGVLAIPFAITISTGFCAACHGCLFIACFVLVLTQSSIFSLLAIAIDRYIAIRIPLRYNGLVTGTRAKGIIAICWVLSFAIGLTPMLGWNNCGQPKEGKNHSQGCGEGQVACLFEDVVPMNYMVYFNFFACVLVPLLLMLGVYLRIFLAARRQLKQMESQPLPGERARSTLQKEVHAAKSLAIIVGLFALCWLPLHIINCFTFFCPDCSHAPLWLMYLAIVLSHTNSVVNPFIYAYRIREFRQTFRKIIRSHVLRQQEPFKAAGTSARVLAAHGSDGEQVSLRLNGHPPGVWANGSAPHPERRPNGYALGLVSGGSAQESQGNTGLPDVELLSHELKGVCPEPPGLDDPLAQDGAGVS
Method in brief: (§1)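 cAMP accumulation, determined by HTRF after a 15 min incubation, served as the functional measure of receptor activity.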

human A2B receptors = molecular target: T2, human A2B receptors (Homo sapiens, UniProt P29275); test: Inhibition of human A2B receptor in recombinant HEK293 cells, cAMP quantification (HTRF); type: cell-based; conditions: read-out: A2B (Category)
T2 construct: expressed in transfected cells; host or cells: HEK293
T2 sequence (P29275 1-332): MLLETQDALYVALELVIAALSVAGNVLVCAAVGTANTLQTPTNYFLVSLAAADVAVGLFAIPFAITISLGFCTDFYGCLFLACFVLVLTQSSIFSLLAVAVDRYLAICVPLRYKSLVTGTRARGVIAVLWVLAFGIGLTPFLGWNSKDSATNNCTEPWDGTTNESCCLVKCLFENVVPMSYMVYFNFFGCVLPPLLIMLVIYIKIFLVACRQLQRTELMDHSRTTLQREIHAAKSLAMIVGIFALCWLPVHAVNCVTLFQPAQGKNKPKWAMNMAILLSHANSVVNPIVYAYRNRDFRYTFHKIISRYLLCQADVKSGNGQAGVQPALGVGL
Method in brief: as §1

| SMILES | IC50 (human A2A receptors) | IC50 (human A2B receptors) |
| --- | --- | --- |
| O=C(c1cc2c(cn1)c(Nc1cc(F)ccn1)nn2CC(F)(F)F)N1CCC(O)CC1 [Compound 111, [3-[(4-fluoro-2-pyridyl)amino]-1-(2,2,2-trifluoroethyl)pyrazolo[4,3-c]pyridin-6-yl]-(4-hydroxypiperidin-1-yl)methanone] | < 0.1 µM | < 0.1 µM |
| CC1(O)CCN(C(=O)c2cc3c(cn2)c(Nc2cc(F)ccn2)nn3CC(F)(F)F)CC1 [Compound 112, [3-(4-Fluoro-pyridin-2-ylamino)-1-(2,2,2-trifluoro-ethyl)-1H-pyrazolo[4,3-c]pyridin-6-yl]-(4-hydroxy-4-methyl-piperidin-1-yl)-methanone] | < 0.1 µM | < 0.1 µM |
| CCC1(O)CCN(C(=O)c2cc3c(cn2)c(Nc2cc(F)ccn2)nn3CC(F)(F)F)CC1 [Compound 113, [3-(4-Fluoro-pyridin-2-ylamino)-1-(2,2,2-trifluoro-ethyl)-1H-pyrazolo[4,3-c]pyridin-6-yl]-(4-ethyl-4-hydroxypiperidin-1-yl)-methanone] | < 0.1 µM | < 0.1 µM |
| CC(C)C1(O)CCN(C(=O)c2cc3c(cn2)c(Nc2cc(F)ccn2)nn3CC(F)(F)F)CC1 [Compound 114, [3-(4-Fluoro-pyridin-2-ylamino)-1-(2,2,2-trifluoro-ethyl)-1H-pyrazolo[4,3-c]pyridin-6-yl]-(4-isopropyl-4-hydroxypiperidin-1-yl)-methanone] | < 0.1 µM | < 0.1 µM |
| O=C(c1cc2c(cn1)c(Nc1cc(F)ccn1)nn2CC(F)(F)F)N1CCC(O)(C2CC2)CC1 [Compound 115, [3-(4-Fluoro-pyridin-2-ylamino)-1-(2,2,2-trifluoro-ethyl)-1H-pyrazolo[4,3-c]pyridin-6-yl]-(4-cyclopropyl-4-hydroxypiperidin-1-yl)-methanone] | < 0.1 µM | < 0.1 µM |
| O=C(c1cc2c(cn1)c(Nc1cc(F)ccn1)nn2CC(F)(F)F)N1CCC(F)CC1 [Compound 116, (4-Fluoro-piperidin-1-yl)-[3-(4-fluoro-pyridin-2-ylamino)-1-(2,2,2-trifluoro-ethyl)-1H-pyrazolo[4,3-c]pyridin-6-yl]-methanone] | < 0.1 µM | < 0.1 µM |
| O=C(c1cc2c(cn1)c(Nc1cc(F)ccn1)nn2CC(F)(F)F)N1CCC[C@H](O)C1 [Compound 117, [(3S)-3-hydroxy-piperidin-1-yl]-[3-(4-fluoro-pyridin-2-ylamino)-1-(2,2,2-trifluoro-ethyl)-1H-pyrazolo[4,3-c]pyridin-6-yl]methanone] | < 0.1 µM | < 0.1 µM |
| O=C(c1cc2c(cn1)c(Nc1cc(F)ccn1)nn2CC(F)(F)F)N1[C@@H]2CC[C@H]1C[C@@H](O)C2 [Compound 120, [3-[(4-fluoro-2-pyridyl)amino]-1-(2,2,2-trifluoroethyl)pyrazolo[4,3-c]pyridin-6-yl]-(3-endo-hydroxy-8-azabicyclo[3.2.1]octan-8-yl)methanone] | < 0.1 µM | < 0.1 µM |
| [2H]C1([2H])COCCN(C(=O)c2cc3c(cn2)c(Nc2cnccn2)nn3CC(F)(F)F)C1 [Compound 121] | < 0.1 µM | < 1 µM |
| O=C(c1cc2c(cn1)c(Nc1cnccn1)nn2CC(F)(F)F)N1CCOC[C@@H](F)C1 [Compound 122, [(6S)-6-fluoro-1,4-oxazepan-4-yl]-[3-(pyrazin-2ylamino)-1-(2,2,2-trifluoro-ethyl)-1H-pyrazolo[4,3-c]pyridin-6-yl]-methanone] | < 0.1 µM | < 0.1 µM |
| CC1(O)CCN(C(=O)c2cc3c(cn2)c(Nc2cnccn2)nn3CC(F)(F)F)CC1 [Compound 123, [3-(pyrazin-2ylamino)-1-(2,2,2-trifluoro-ethyl)-1H-pyrazolo[4,3-c]pyridin-6-yl]-(4-hydroxy-4-methyl-piperidin-1-yl)-methanone] | < 1 µM | < 1 µM |
| O=C(c1cc2c(cn1)c(Nc1cnccn1)nn2CC(F)(F)F)N1CCC(F)CC1 [Compound 124, [3-(pyrazin-2ylamino)-1-(2,2,2-trifluoro-ethyl)-1H-pyrazolo[4,3-c]pyridin-6-yl]-(4-fluoro-piperidin-1-yl)-methanone] | < 0.1 µM | < 1 µM |
